Results: the supplement of paper PMC10307832

Key:
Assay in all cases: relative viability (nuclei count vs DMSO), 5 days (fraction); higher = more cells survive
Fedratinib + Navitoclax = compound: Cc1cnc(Nc2ccc(OCCN3CCCC3)cc2)nc1Nc1cccc(S(=O)(=O)NC(C)(C)C)c1 [Fedratinib] + CC1(C)CCC(c2ccc(Cl)cc2)=C(CN2CCN(c3ccc(C(=O)NS(=O)(=O)c4ccc(N[C@H](CCN5CCOCC5)CSc5ccccc5)c(S(=O)(=O)C(F)(F)F)c4)cc3)CC2)C1 [Navitoclax] (partner 0.5 µM)
Method in brief: (§1)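 Dosing by pin tool came one day after lung cancer cell lines were seeded in 1536-well plates, using either one drug or a fixed anchor-drug dose plus five library-drug doses (not always all listed) in √10 steps. After 5 days, nuclei were counted on 4× images. Relative viability is treated-well nuclei count divided by vehicle-well nuclei count, and values are medians of duplicate plates.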

GW-2580 + Foretinib = compound: COC1=CC=C(C=C1)COC2=C(C=C(C=C2)CC3=CN=C(N=C3N)N)OC [GW-2580] + COc1cc2c(Oc3ccc(NC(=O)C4(C(=O)Nc5ccc(F)cc5)CC4)cc3F)ccnc2cc1OCCCN1CCOCC1 [Foretinib] (partner 0.25 µM)
Method in brief: as §1

Fedratinib + Palbociclib = compound: Cc1cnc(Nc2ccc(OCCN3CCCC3)cc2)nc1Nc1cccc(S(=O)(=O)NC(C)(C)C)c1 [Fedratinib] + CC(=O)c1c(C)c2cnc(Nc3ccc(N4CCNCC4)cn3)nc2n(C2CCCC2)c1=O [Palbociclib] (partner 0.5 µM)
Method in brief: as §1

Fedratinib + Linsitinib = compound: Cc1cnc(Nc2ccc(OCCN3CCCC3)cc2)nc1Nc1cccc(S(=O)(=O)NC(C)(C)C)c1 [Fedratinib] + C[C@]1(O)C[C@@H](c2nc(-c3ccc4ccc(-c5ccccc5)nc4c3)c3c(N)nccn32)C1 [Linsitinib] (partner 1 µM)
Method in brief: as §1

Fedratinib + Tozasertib = compound: Cc1cnc(Nc2ccc(OCCN3CCCC3)cc2)nc1Nc1cccc(S(=O)(=O)NC(C)(C)C)c1 [Fedratinib] + Cc1cc(Nc2cc(N3CCN(C)CC3)nc(Sc3ccc(NC(=O)C4CC4)cc3)n2)n[nH]1 [Tozasertib] (partner 0.1 µM)
Method in brief: as §1

Cell Line	relative viability (Fedratinib + Navitoclax; first compound 0.1 µM)	relative viability (Fedratinib + Navitoclax; first compound 0.3162 µM)	relative viability (Fedratinib + Navitoclax; first compound 1 µM)	relative viability (GW-2580 + Foretinib; first compound 0.08 µM)	relative viability (GW-2580 + Foretinib; first compound 0.8 µM)	relative viability (GW-2580 + Foretinib; first compound 2.53 µM)	relative viability (GW-2580 + Foretinib; first compound 8 µM)	relative viability (Fedratinib + Palbociclib; first compound 0.1 µM)	relative viability (Fedratinib + Palbociclib; first compound 0.3162 µM)	relative viability (Fedratinib + Palbociclib; first compound 1 µM)	relative viability (Fedratinib + Linsitinib; first compound 0.1 µM)	relative viability (Fedratinib + Linsitinib; first compound 0.3162 µM)	relative viability (Fedratinib + Linsitinib; first compound 1 µM)	relative viability (Fedratinib + Tozasertib; first compound 0.1 µM)	relative viability (Fedratinib + Tozasertib; first compound 0.3162 µM)	relative viability (Fedratinib + Tozasertib; first compound 1 µM)
NCI-H1793	0.295	0.456	0.476	0.694	0.758	0.584	0.58	0.316	0.319	0.313	0.937	0.857	0.899	0.263	0.353	0.288
NCI-H2023	1.04	0.945	0.946	0.735	1.02	0.841	0.779	0.391	0.356	0.248	0.603	0.673	0.601	0.226	0.289	0.281
COR-L 105	0.568	0.657	0.689	1.09	1.19	1.05	0.993	0.393	0.41	0.405	0.951	0.817	0.827	0.362	0.361	0.338
RERF-LC-KJ	0.913	0.948	1.07	0.896	0.911	0.842	0.765	1.01	1.05	1.02	0.805	0.906	0.855	0.292	0.38	0.347
LXF-289	0.925	0.875	0.939	1.06	0.99	0.957	0.891	0.611	0.559	0.558	0.989	0.943	0.963	0.149	0.185	0.151
PC-14	1.16	1.08	0.989	1.08	1.07	0.924	0.936	0.592	0.58	0.402	0.927	1.03	0.92	0.436	0.59	0.583
NCI-H1666	0.877	0.96	0.946	0.928	0.936	0.948	0.991	0.636	0.657	0.629	0.726	0.875	0.869	0.558	0.599	0.514
NCI-H2085	1.01	1.01	0.883	1	0.895	1.08	0.758	0.447	0.483	0.423	0.845	0.872	0.858	0.478	0.827	0.764
NCI-H1734	0.852	0.865	0.828	0.894	0.855	0.783	0.717	0.415	0.344	0.334	0.898	0.865	0.776	0.262	0.278	0.243
NCI-H2126	0.852	0.831	0.86	1.32	1.13	0.925	1.28	0.319	0.339	0.369	0.689	0.732	0.682	0.429	0.818	0.781
EMC-BAC-2	1.19	1.15	1.11	1.13	1.11	1.04	0.865	0.533	0.503	0.489	0.802	0.832	0.796	0.201	0.268	0.227
NCI-H1993	0.75	0.869	0.903	0.921	0.765	0.686	0.746	0.654	0.63	0.906	0.706	0.718	0.682	0.58	0.575	0.596
NCI-H520	1.13	1.07	0.983	0.804	0.627	0.783	0.762	0.149	0.214	0.164	1.09	1.25	1.02	0.438	0.467	0.405
NCI-H647	1.14	1.2	0.97	1.25	1.16	1.13	1.37	0.346	0.362	0.364	1.14	1.16	1.11	0.249	0.336	0.214
SK-LU-1	–	0.917	0.611	0.823	0.934	0.708	0.816	0.393	0.317	0.34	–	0.999	1.01	0.27	0.298	0.261
NCI-H2009	1.13	1.19	1.1	1.31	1.25	1.21	1.17	0.185	0.254	0.161	1.18	1.18	1.17	0.547	0.792	0.652
LOU-NH91	0.588	0.786	0.575	0.957	0.969	0.94	1.02	0.573	0.544	0.543	0.844	1.08	0.831	0.388	0.73	0.64
NCI-H2405	0.583	0.895	0.506	1.04	1.08	0.963	0.958	0.486	0.536	0.463	0.704	0.962	0.702	0.418	0.705	0.612

Cell Line	relative viability (Fedratinib + Navitoclax; first compound 0.1 µM)	relative viability (Fedratinib + Navitoclax; first compound 0.3162 µM)	relative viability (Fedratinib + Navitoclax; first compound 1 µM)	relative viability (GW-2580 + Foretinib; first compound 0.08 µM)	relative viability (GW-2580 + Foretinib; first compound 0.8 µM)	relative viability (GW-2580 + Foretinib; first compound 2.53 µM)	relative viability (GW-2580 + Foretinib; first compound 8 µM)	relative viability (Fedratinib + Palbociclib; first compound 0.1 µM)	relative viability (Fedratinib + Palbociclib; first compound 0.3162 µM)	relative viability (Fedratinib + Palbociclib; first compound 1 µM)	relative viability (Fedratinib + Linsitinib; first compound 0.1 µM)	relative viability (Fedratinib + Linsitinib; first compound 0.3162 µM)	relative viability (Fedratinib + Linsitinib; first compound 1 µM)	relative viability (Fedratinib + Tozasertib; first compound 0.1 µM)	relative viability (Fedratinib + Tozasertib; first compound 0.3162 µM)	relative viability (Fedratinib + Tozasertib; first compound 1 µM)
LCLC-97TM1	0.275	0.394	0.412	1.01	0.961	1.01	0.884	0.215	0.235	0.183	0.151	0.192	0.203	0.175	0.213	0.19
NCI-H727	0.381	0.346	0.213	0.694	1.05	0.834	0.777	0.483	0.652	0.624	0.2	0.213	0.335	0.493	0.823	0.656
H3255	0.533	0.385	0.384	0.859	0.835	0.742	0.829	0.277	0.303	0.318	1.04	1.03	0.926	0.578	0.537	0.655
SK-MES-1	1.39	1.19	1.07	1.03	0.934	0.962	0.915	0.339	0.32	0.271	1.08	1.11	1	0.375	0.857	0.737
NCI-H1437	1.14	1.02	0.988	1.38	1.28	1.14	0.91	0.264	0.308	0.293	1.03	0.978	0.884	0.398	0.417	0.368
LU99A	0.824	0.834	0.666	0.834	0.944	0.724	0.881	0.469	0.382	0.392	0.521	0.513	0.48	0.209	0.291	0.276
HCC-827	0.949	1.01	1.06	1.13	1.02	1.02	0.905	0.454	0.485	0.475	0.964	1.01	0.948	0.345	0.387	0.409
LK-2	0.831	1.34	0.777	1.62	1.45	1.05	1.2	0.55	0.581	0.608	0.349	0.733	0.495	0.186	0.193	0.161
HCC-366	1.22	1.04	1.07	1	0.879	0.964	0.791	0.603	0.355	0.315	0.55	0.663	0.663	0.0591	0.123	0.072
BEN	0.0815	0.055	0.0392	0.61	0.731	0.406	0.674	0.473	0.429	0.471	0.779	0.914	0.852	0.507	0.464	0.45
NCI-H23	0.87	0.75	0.73	1.23	1.18	0.887	0.907	0.555	0.497	0.4	0.583	0.618	0.431	0.528	0.364	0.303
NCI-H1395	1.3	1.13	0.962	1.08	0.934	1	0.923	0.599	0.561	0.493	1.2	1.29	1.28	0.623	0.874	0.653
201T	1.16	1.18	1.21	1.09	1.1	1.24	1.13	0.362	0.342	0.33	1.03	1.02	0.974	0.609	0.904	0.874
NCI-H460	1.05	1.03	0.969	1.02	1.09	0.987	0.924	0.163	0.142	0.06	0.806	0.773	0.52	0.078	0.379	0.334
HCC-15	0.654	0.635	0.487	1.06	1.09	1.01	0.958	0.664	0.708	0.636	0.755	0.719	0.734	0.165	0.339	0.341
NCI-H441	0.534	0.341	0.574	1.03	1.16	1.06	1.1	0.195	0.176	0.204	0.518	0.442	0.343	0.412	0.538	0.575
EPLC-272H	1.14	0.936	1.09	0.73	0.766	–	0.605	0.318	0.339	0.365	1.45	0.983	0.993	0.178	0.318	0.251
